For this assay, the system named is NCI-H322M multicellular tumor spheroids, viability (% test/control). Nature of the assay: Anticancer human tumor NCI-H322M cell line growth inhibition.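 As to viability, T/C: spheroids exposed to compound for seven days before readout; 100% = DMSO vehicle control wells.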 The following applies: for viability, T/C: stronger effect = lower value. The essentials: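 Single agents and combinations were tested on spheroids built from tumor cells plus HUVEC and hMSC, at half-log dilutions starting at or near clinical Cmax, else 10 microM; final DMSO 0.25% (v/v).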

IC50 and viability, T/C data for three compounds are collected here from PubChem BioAssay AID1845211 (Molecular Pharmacology Branch, DTP, NCI, 2023).

“And” between values parts separate entries of the source, which are not always exact repeats. Identical values can stand only once.

As to `O=C(c1cc(Cc2n[nH]c(=O)c3ccccc23)ccc1F)N1CCN(C(=O)C2CC2)CC1` + CC[C@@]1(O)C(=O)OCc2c1cc1n(c2=O)Cc2cc3c(CN(C)C)c(O)ccc3nc2-1, the 50% inhibitory concentration (IC50) was above 30 µM (curve of first compound, second compound 0.003 µM); above 30 µM (curve of first compound, second compound 0.00949 µM); above 30 µM (curve of first compound, second compound 0.03 µM); above 30 µM (curve of first compound, second compound 0.0949 µM); below 0.0949 µM (curve of first compound, second compound 0.3 µM). The viability, T/C (second compound 0.003 µM, first compound 0.0949 µM) was 77.7%; the viability, T/C (second compound 0.003 µM, first compound 0.3 µM) is 78.8%; the viability, T/C (second compound 0.003 µM, first compound 0.949 µM) is 79.2%; the viability, T/C (second compound 0.003 µM, first compound 3 µM) was 87.3%; the viability, T/C (second compound 0.003 µM, first compound 9.49 µM) is 95.8%; the viability, T/C (second compound 0.003 µM, first compound 30 µM) is 78.2%. Also, the viability, T/C (second compound 0.00949 µM, first compound 0.0949 µM) was 85.7%; the viability, T/C (second compound 0.00949 µM, first compound 0.3 µM) is 73%; the viability, T/C (second compound 0.00949 µM, first compound 0.949 µM) is 71.6%; the viability, T/C (second compound 0.00949 µM, first compound 3 µM) is 77%; the viability, T/C (second compound 0.00949 µM, first compound 9.49 µM) was 66.9%; the viability, T/C (second compound 0.00949 µM, first compound 30 µM) is 83.5%. Also, the viability, T/C is 67.5% (second compound 0.03 µM, first compound 0.0949 µM); 69.7% (second compound 0.03 µM, first compound 0.3 µM); 78.4% (second compound 0.03 µM, first compound 0.949 µM); 78.5% (second compound 0.03 µM, first compound 3 µM); 78.5% (second compound 0.03 µM, first compound 9.49 µM); 75.4% (second compound 0.03 µM, first compound 30 µM). For the same compound, the viability, T/C was 56.4% (second compound 0.0949 µM, first compound 0.0949 µM); 57.6% (second compound 0.0949 µM, first compound 0.3 µM); 60.5% (second compound 0.0949 µM, first compound 0.949 µM); 51.4% (second compound 0.0949 µM, first compound 3 µM); 50.5% (second compound 0.0949 µM, first compound 9.49 µM); 61.1% (second compound 0.0949 µM, first compound 30 µM). Besides, the viability, T/C was 42.5% (second compound 0.3 µM, first compound 0.0949 µM); 48.8% (second compound 0.3 µM, first compound 0.3 µM); 45.3% (second compound 0.3 µM, first compound 0.949 µM); 49.6% (second compound 0.3 µM, first compound 3 µM); 55.1% (second compound 0.3 µM, first compound 9.49 µM); 46.5% (second compound 0.3 µM, first compound 30 µM).
As for `[2H]c1nc(C)nc([2H])c1-c1cc(NC[C@@H](C)c2cccc3c(C(=O)NC)ccnc23)ncn1`, the viability, T/C was 78.5% and 92.3% and 103% (compound 0.0316 µM); 84.9% and 85.2% and 114% (compound 0.1 µM); 81% and 104% and 97.4% (compound 0.316 µM); 85.9% and 101% (2×) (compound 1 µM); 84.4% and 87.3% and 106% (compound 3.16 µM); 88.4% and 85.9% and 108% (compound 10 µM). Further, the concentration for half-maximal inhibition (IC50) (curve of compound) is above 10 µM.
`Cn1ncnc1[C@H]1c2n[nH]c(=O)c3cc(F)cc(c23)N[C@@H]1c1ccc(F)cc1`: the viability, T/C by setting is: (compound 0.00949 µM) 90.1% and 93.2% and 85.8%; (compound 0.03 µM) 88.6% and 91.6% and 90.2%; (compound 0.0949 µM) 79.9% and 77.7% and 81%; (compound 0.3 µM) 95.3% and 83.4% and 83%; (compound 0.949 µM) 81.9% and 79.7% and 75.5%; (compound 3 µM) 70% and 66.2% and 68.7%. Also, for the setting “curve of compound”, the IC50 was above 3 µM.
